Structures are written as SMILES.

The target in test [1] is Hepatocyte growth factor receptor (Homo sapiens, UniProt P08581). The test can be described thus: Inhibition of phosphorylation of c-Met in human MKN45 cells.
The target in test [2] is T1, Macrophage-stimulating protein receptor (Homo sapiens, UniProt Q04912). The test can be described thus: Inhibition of RON phosphorylation in human PC3 cells. The format is cell-based, PC-3.
Test [3] has as its target T1, Macrophage-stimulating protein receptor. The test can be described thus: Inhibition of RON phosphorylation in human HT29 cells. The format is cell-based, HT-29.
In a further test the test system is MDA-MB-231. Description: Antiproliferative activity against human MDA-MB-231 cells by MTT assay. It counts as functional, cell-based. On the technique in general: Tetrazolium dyes change colour on reduction, which living cells bring about.
Another test deals with A549. Description: Antiproliferative activity against human A549 cells by MTT assay. The format is functional, cell-based.
For test [4], the target named is T1, Macrophage-stimulating protein receptor. The test can be described thus: Inhibition of RON (unknown origin) kinase domain by enzymatic assay.

T1 sequence (Q04912 25-304 limits assumed): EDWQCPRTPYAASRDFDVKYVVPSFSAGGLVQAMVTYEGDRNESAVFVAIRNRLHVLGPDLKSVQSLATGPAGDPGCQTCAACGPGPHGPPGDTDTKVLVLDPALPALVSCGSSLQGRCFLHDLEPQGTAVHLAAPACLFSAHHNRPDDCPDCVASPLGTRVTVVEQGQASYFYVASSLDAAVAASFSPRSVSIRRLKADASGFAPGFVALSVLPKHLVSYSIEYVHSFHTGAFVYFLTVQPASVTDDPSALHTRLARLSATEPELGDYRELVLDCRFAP
T1 sequence (Q04912 310-1400 limits assumed): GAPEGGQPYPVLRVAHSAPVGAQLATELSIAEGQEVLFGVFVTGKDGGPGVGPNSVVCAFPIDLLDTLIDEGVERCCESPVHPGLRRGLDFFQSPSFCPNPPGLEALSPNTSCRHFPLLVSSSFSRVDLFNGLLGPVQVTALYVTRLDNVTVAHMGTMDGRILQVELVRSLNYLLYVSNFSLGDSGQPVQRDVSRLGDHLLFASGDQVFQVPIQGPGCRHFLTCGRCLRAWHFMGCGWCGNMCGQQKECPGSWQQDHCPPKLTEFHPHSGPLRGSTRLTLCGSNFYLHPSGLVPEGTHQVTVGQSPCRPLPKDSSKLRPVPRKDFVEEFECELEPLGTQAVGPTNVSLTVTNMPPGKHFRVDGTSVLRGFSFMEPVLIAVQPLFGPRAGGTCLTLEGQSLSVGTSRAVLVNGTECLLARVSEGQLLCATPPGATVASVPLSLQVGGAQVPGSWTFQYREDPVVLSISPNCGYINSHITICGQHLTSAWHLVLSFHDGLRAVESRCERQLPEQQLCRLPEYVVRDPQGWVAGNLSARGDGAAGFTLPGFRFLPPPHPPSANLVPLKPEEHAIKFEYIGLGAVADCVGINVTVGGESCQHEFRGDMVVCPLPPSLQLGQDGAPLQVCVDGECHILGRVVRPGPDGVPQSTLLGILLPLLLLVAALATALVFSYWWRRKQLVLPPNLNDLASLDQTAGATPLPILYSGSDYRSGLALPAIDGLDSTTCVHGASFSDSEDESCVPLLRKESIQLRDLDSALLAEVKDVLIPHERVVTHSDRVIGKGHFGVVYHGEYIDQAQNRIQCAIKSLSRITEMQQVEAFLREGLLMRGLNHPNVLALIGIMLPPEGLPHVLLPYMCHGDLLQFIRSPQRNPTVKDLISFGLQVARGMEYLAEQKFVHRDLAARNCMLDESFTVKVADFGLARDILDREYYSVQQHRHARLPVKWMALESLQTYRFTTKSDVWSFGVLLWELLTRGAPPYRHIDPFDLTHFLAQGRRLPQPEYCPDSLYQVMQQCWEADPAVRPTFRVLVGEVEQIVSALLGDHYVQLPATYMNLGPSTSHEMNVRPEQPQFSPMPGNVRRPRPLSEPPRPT
Sequence of Hepatocyte growth factor receptor (P08581 whole entry): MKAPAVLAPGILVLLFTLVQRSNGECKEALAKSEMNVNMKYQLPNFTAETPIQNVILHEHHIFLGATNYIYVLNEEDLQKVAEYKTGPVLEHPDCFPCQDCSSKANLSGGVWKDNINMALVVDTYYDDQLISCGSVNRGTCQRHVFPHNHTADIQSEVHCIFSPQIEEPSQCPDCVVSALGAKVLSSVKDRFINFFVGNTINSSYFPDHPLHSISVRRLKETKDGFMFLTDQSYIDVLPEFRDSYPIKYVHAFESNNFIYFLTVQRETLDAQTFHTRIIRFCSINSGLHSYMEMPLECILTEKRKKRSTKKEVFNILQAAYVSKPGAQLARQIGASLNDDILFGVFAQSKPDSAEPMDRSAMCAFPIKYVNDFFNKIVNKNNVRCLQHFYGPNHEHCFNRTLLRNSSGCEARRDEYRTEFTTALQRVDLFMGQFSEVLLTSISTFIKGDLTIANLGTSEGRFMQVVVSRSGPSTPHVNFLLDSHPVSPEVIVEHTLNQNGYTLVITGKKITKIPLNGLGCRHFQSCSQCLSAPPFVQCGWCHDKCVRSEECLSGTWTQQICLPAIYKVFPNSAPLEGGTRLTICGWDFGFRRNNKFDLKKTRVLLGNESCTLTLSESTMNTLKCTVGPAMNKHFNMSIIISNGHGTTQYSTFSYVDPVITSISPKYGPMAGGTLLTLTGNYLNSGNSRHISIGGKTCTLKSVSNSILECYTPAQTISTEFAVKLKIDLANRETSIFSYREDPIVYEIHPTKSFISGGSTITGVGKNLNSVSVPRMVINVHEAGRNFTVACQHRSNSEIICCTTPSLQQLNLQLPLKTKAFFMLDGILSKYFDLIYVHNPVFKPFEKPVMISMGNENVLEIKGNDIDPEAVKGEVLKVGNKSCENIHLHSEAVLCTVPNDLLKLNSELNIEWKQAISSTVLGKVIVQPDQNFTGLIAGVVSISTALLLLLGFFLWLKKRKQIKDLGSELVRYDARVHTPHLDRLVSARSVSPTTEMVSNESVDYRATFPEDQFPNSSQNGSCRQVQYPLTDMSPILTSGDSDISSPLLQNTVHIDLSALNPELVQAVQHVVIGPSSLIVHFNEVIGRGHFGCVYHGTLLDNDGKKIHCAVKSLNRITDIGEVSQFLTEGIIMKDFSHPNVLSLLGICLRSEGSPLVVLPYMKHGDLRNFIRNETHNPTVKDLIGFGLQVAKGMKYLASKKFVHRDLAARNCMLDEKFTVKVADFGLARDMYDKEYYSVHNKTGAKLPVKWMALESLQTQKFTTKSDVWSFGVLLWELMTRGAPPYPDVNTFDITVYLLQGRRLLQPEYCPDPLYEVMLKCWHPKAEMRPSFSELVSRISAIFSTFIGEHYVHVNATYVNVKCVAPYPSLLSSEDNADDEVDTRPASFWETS

What is called IC50 is the concentration that gives 50% inhibition. Read a high IC50 as lower potency. `Cn1cnc(-c2cc3nccc(Oc4ccc(NC(=O)c5cnn(-c6ccccc6)c5C(F)(F)F)cc4F)c3s2)c1`: the half-inhibitory concentration (IC50) in test [1] was determined as 6870 nM; in test [2], 30 nM; in test [3] it was 30 nM; in the test on MDA-MB-231 it was 100 nM; with A549 it was 100 nM; in test [4], 12 nM.
In the case of `Cn1cnc(-c2cc3nccc(Oc4ccc(NC(=O)c5ccn(-c6ccccc6)c5C(F)(F)F)cc4F)c3s2)c1`, in test [1] (mkn-45), the half-maximal inhibitory concentration (IC50) entry was “Not Active”.
